{"source": "patent US7045529B2", "about": "“Imidazopyrimidinyl and imidazopyri dinyl derivatives” (Bristol-Myers Squibb Company, priority 1999, dated 2006)", "key": {"[1]": {"tested_on": "“anxiogenic” effects of CRF", "conditions": "cited from earlier work; for effect on the “anxiogenic” effects / actions of CRF in the conflict test: rats, literature (Britton et al.)"}}}
{"smiles": "CCc1nc2c(-c3ccc(OC(F)(F)F)cc3Cl)ncnc2n1C(C1CC1)C1CC1", "note": "[Example 8, 6-(2-Chloro-4-trifluoromethoxyphenyl)-9-dicyclopropylmethyl-8-ethylpurine]", "values": [{"measurement": "melting point", "result": "119 to 120", "unit": "°C"}]}
{"smiles": "CCCC(C)n1c(CC)nc2c(-c3ccc(OC(F)F)cc3Cl)ncnc21", "note": "(centres unmarked) [Example 10, 6-(2-Chloro-4-difluoromethoxyphenyl)-8-ethyl-9-(2-pentyl)purine]", "values": [{"measurement": "melting point", "result": "99 to 100", "unit": "°C"}]}
{"smiles": "CNC(=O)c1cc2c(cn1)[nH]c1ccccc12", "note": "[FG7142]", "values": [{"measurement": "effect on the “anxiogenic” effects / actions of CRF in the conflict test", "setting": "[1]", "result": "enhanced the actions of CRF"}]}
{"smiles": "CCOC(=O)c1ncn2c1CN(C)C(=O)c1cc(F)ccc1-2", "note": "[Ro15-1788]", "values": [{"measurement": "behavioral activity alone in the operant conflict test", "setting": "[1]; compound alone, without CRF, literature (Britton et al. 1988)", "result": "without behavioral activity alone"}, {"measurement": "effect on the “anxiogenic” effects / actions of CRF in the conflict test", "setting": "[1]", "result": "reversed the effects of CRF in a dose-dependent manner"}]}
